Measurements as given in patent US12329823B2 (The Scripps Research Institute, priority 2021, dated 2025).
Read-outs that look alike come from different tables or passages of the source.

How the values were obtained:
Format in all cases: cell-based
human GLP-1R = human GLP-1R (Homo sapiens, UniProt P43220); test: In vitro receptor activation reporter assay (CRE-Luc, HEK293-GLP-1R-CRE cells; receptor-mediated cAMP synthesis); design: expressed in transfected cells; host or cells: HEK293 (CRE-HEK293, HEK293-GLP-1R-CRE)
Chain of human GLP-1R (P43220 24-463): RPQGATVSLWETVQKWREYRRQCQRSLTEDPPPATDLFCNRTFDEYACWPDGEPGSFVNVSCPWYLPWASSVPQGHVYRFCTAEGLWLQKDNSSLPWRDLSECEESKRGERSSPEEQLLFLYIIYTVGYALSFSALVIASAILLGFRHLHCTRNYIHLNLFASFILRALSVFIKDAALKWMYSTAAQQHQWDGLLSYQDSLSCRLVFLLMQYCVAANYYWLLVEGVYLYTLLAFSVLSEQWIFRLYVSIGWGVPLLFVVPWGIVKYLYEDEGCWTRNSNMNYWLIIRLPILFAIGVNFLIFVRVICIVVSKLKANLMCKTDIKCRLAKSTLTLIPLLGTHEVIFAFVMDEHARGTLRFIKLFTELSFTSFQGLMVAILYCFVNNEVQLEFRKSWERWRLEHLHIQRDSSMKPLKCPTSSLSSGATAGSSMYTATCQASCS
Experimental: HEK293 cells were infected with lentivirus encoding firefly luciferase gene under the control of cAMP responsive element (CRE) promoter (Qiagen, The Netherlands) and then were selected using 1 μg mL^−1 puromycin (Life Technologies, Carlsbad) for 1 week. The surviving cells (referred to as CRE-HEK293) were expanded and then transfected with a G418 selective mammalian expression plasmid encoding human GLP-1R or GIPR. In brief, GLP-1R or GIPR plasmid was transfected into CRE-HEK293 cells using Lipofectamine 2000 and selected with 400 μg mL^−1 Geneticin (Life Technologies, Carlsbad, CA). Single colony stable cell line overexpressing CRE-luciferase and GLP-1R or GIPR (HEK293-GLP-1R-CRE or HEK293-GIPR-CRE) was then established for in vitro activity assay.
HEK293 cells were infected with lentivirus encoding firefly luciferase gene under the control of cAMP responsive element (CRE) promoter (Qiagen, The Netherlands) and then were selected using 1 μg/mL puromycin (Life Technologies, Carlsbad) for 1 week. The surviving cells (referred to as CRE-HEK293) were expanded and then transfected with a G418 selective mammalian expression plasmid encoding human GLP-1R. In brief, GLP-1R plasmid was transfected into CRE-HEK293 cells using Lipofectamine 2000 and selected with 400 μg/mL Geneticin (Life Technologies, Carlsbad, CA). Single colony stable cell line overexpressing CRE-luciferase and GLP1R was then established for in vitro activity assay.

dog GLP1R = molecular target: T1, dog GLP1R (Canis lupus familiaris, UniProt A0A8I3NUR9); test: In vitro potency, dog GLP1R activation (receptor-mediated cAMP synthesis); details: Table 12
T1 sequence (A0A8I3NUR9 1-464): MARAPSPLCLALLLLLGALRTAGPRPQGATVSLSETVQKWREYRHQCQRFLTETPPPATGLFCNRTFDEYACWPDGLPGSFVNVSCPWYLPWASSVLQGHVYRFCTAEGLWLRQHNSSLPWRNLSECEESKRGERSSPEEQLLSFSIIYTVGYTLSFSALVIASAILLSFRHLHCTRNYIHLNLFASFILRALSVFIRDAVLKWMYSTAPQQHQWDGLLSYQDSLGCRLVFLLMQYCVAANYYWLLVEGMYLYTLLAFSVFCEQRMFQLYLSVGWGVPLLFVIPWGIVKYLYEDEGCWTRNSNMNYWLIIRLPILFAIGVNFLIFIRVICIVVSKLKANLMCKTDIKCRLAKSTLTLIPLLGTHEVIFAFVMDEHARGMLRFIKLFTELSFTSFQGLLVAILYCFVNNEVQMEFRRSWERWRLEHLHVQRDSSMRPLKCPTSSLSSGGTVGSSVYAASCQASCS
Experimental: (§1) GLP-1R-CRE or HEK293-GIPR-CRE cells were seeded in 384-well plates at a density of 5000 cells per well and cultured for 18 h in DMEM with 10% FBS at 37° C. and 5% CO2. Cells were treated with peptides in a dose dependent manner for 24 h, and receptor activation was reported by luminescence intensities, using One-Glo (Promega, WI) luciferase reagent following manufacturer's instruction. The EC50 of each peptide was determined using GraphPad Prism 6 software (GraphPad, San Diego, CA). Results are depicted in FIGS. 6A-6B, FIGS. 7A-7B, FIGS. 8A-8B, FIGS. 9A-9B, and Tables 7-12. Measurements of peptide conjugate potency were expressed as half maximal effective concentration (EC50) values.

mouse GIPR = molecular target: T2, mouse GIPR (Mus musculus, UniProt Q0P543); test: In vitro potency, mouse GIPR activation (receptor-mediated cAMP synthesis); details: Table 12
T2 sequence (Q0P543 19-460): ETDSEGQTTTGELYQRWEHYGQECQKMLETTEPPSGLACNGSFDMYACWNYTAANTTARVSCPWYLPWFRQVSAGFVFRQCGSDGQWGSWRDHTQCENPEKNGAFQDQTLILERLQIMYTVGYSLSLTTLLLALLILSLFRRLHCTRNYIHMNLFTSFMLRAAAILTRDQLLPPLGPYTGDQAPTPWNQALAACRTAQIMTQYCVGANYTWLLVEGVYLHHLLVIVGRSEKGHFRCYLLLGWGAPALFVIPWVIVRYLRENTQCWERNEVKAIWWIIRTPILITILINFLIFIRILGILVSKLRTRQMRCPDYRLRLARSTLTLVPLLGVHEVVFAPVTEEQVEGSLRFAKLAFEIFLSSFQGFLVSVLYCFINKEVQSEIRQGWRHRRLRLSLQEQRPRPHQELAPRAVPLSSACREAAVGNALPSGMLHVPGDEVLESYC

mouse GLP1R = molecular target: T3, mouse GLP1R (Mus musculus, UniProt O35659); test: In vitro potency, mouse GLP1R activation (receptor-mediated cAMP synthesis); details: Table 12
T3 sequence (O35659 22-463): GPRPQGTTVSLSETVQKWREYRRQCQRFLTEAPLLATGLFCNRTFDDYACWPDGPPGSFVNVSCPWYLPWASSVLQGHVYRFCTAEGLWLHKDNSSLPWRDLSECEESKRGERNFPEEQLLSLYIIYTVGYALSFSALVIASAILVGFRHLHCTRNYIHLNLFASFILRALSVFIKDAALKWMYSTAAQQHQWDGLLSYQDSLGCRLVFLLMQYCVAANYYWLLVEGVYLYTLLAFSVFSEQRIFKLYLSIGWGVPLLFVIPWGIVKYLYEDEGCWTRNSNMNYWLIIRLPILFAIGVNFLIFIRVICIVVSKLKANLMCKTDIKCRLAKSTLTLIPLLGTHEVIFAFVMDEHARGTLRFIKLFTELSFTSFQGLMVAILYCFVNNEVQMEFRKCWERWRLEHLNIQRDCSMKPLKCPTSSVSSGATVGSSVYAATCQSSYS
Experimental: as §1

[1] = In Vitro Potency GLPIR EC50, 10% FBS, Table 11, human, 10% FBS

Row | SMILES | EC50 (human GLP-1R; [1]) | EC50 (human GLP-1R; unnumbered table, average of runs, read-out: EC50 GLP1R average) | EC50 (human GLP-1R; unnumbered table, run 02/19, read-out: EC50 GLP1R 02/19) | EC50 (human GLP-1R; unnumbered table, run 3/25, read-out: EC50 GLP1R 3/25) | EC50 (human GLP-1R; unnumbered table, run 03/26, read-out: EC50 GLP1R 03/26) | EC50 (dog GLP1R) | EC50 (mouse GIPR) | EC50 (mouse GLP1R) | EC50 (human GLP-1R; Table 11, human, No Serum, read-out: In Vitro Potency GLPIR EC50, No Serum)
1 | CC[C@H](C)[C@H](NC(=O)[C@H](CC(C)C)NC(=O)[C@H](Cc1c[nH]c2ccccc12)NC(=O)[C@@H]1CSCC(=O)NCCN(C(=O)CCC(=O)NCCOCCOCCC(=O)NCCOCCOCCC(=O)NCCCC[C@H](NC(=O)CCCCCCCCCCCCCCCCCCC(=O)O)C(=O)O)CCNC(=O)CSC[C@H](NC(=O)[C@H](CCCCN)NC(=O)[C@H](CC(=O)O)NC(=O)[C@H](CC(C)C)NC(=O)[C@H](Cc2ccc(O)cc2)NC(=O)[C@@H](NC(=O)[C@H](CO)NC(=O)[C@H](Cc2ccc(O)cc2)NC(=O)[C@H](CC(=O)O)NC(=O)[C@H](CO)NC(=O)[C@@H](NC(=O)[C@H](Cc2ccccc2)NC(=O)[C@@H](NC(=O)CNC(=O)[C@H](CCC(=O)O)NC(=O)C(C)(C)NC(=O)[C@@H](N)Cc2ccc(O)cc2)[C@@H](C)O)[C@@H](C)O)[C@@H](C)CC)C(=O)N[C@@H](C)C(=O)N[C@@H](C)C(=O)NC(C)(C)C(=O)N[C@@H](CCC(=O)O)C(=O)N[C@@H](Cc2ccccc2)C(=O)N[C@@H](C(C)C)C(=O)N1)C(=O)N[C@@H](C)C(=O)NCC(=O)NCC(=O)N1CCC[C@H]1C(=O)N[C@@H](CO)C(=O)N[C@@H](CO)C(=O)NCC(=O)N[C@@H](C)C(=O)N1CCC[C@H]1C(=O)N1CCC[C@H]1C(=O)N1CCC[C@H]1C(=O)N[C@@H](CO)C(N)=O [mCMV268] | 1.96 ± 0.46 nM | 0.03 nM | 0.02 nM | 0.03 nM | 0.03 nM | 1.48 nM | 0.26 nM | 0.26 nM | 
2 | CC[C@H](C)[C@H](NC(=O)[C@H](CC(C)C)NC(=O)[C@H](Cc1c[nH]c2ccccc12)NC(=O)[C@@H]1CSCC(=O)NCCN(C(=O)CCC(=O)NCCOCCOCCC(=O)NCCOCCOCCC(=O)NCCCC[C@H](NC(=O)CCCCCCCCCCCCCCCCC(=O)O)C(=O)O)CCNC(=O)CSC[C@H](NC(=O)[C@H](CCCCN)NC(=O)[C@H](CC(=O)O)NC(=O)[C@H](CC(C)C)NC(=O)[C@H](Cc2ccc(O)cc2)NC(=O)[C@@H](NC(=O)[C@H](CO)NC(=O)[C@H](Cc2ccc(O)cc2)NC(=O)[C@H](CC(=O)O)NC(=O)[C@H](CO)NC(=O)[C@@H](NC(=O)[C@H](Cc2ccccc2)NC(=O)[C@@H](NC(=O)CNC(=O)[C@H](CCC(=O)O)NC(=O)C(C)(C)NC(=O)[C@@H](N)Cc2ccc(O)cc2)[C@@H](C)O)[C@@H](C)O)[C@@H](C)CC)C(=O)N[C@@H](C)C(=O)N[C@@H](C)C(=O)NC(C)(C)C(=O)N[C@@H](CCC(=O)O)C(=O)N[C@@H](Cc2ccccc2)C(=O)N[C@@H](C(C)C)C(=O)N1)C(=O)N[C@@H](C)C(=O)NCC(=O)NCC(=O)N1CCC[C@H]1C(=O)N[C@@H](CO)C(=O)N[C@@H](CO)C(=O)NCC(=O)N[C@@H](C)C(=O)N1CCC[C@H]1C(=O)N1CCC[C@H]1C(=O)N1CCC[C@H]1C(=O)N[C@@H](CO)C(N)=O [mCMZ371, YAibEGT-FTSDY-SIYLD-KXAAAib-EFVXW-LIAGG-PSSGA-PPPS-NH2 (where each X is C) (SEQ ID NO: 61)] | 0.56 ± 0.15 nM |  |  |  |  | 1.34 nM | 0.27 nM | 0.09 nM | 0.14 ± 0.06 nM
